Data published in EP0089143A1, “Diagnosis of kidney function” (AMERSHAM INTERNATIONAL plc, priority 1982, dated 1983).

Assays:
[1] = Biodistribution and renal clearance after injection into rats (bladder activity over time, dissection at 2 hr); type: in vivo; conditions: for % in bladder of that at 2 hrs.: group value (4-8 animals)
Experimental: Solutions of complexes ^*1 and ^*2 from Example 1 were injected into rats and the biodistribution pattern noted. The results of these experiments in rats are summarised in Table 1 below, comparing the data on ^*1 and ^*2 with earlier data on TDG-Tc-99m, Hippuran -1-131 and DTPA-Tc-99m under identical conditions. In all cases, data from animal experiments was used only when the renal performance appeared "normal", i.e. no unilateral or bilateral renal retention. Data was also rejected in cases of significant retention of activity at the injection site.
The solution was filtered through a 0.22 micron membrane filter prior to administration to rats.
The solution was filtered through a 0.22 micron membrane filter prior to adminstration to rats.
A sealed nitrogen filled vial, containing the freeze dried formulation of 20mg TDG, 0.15 mg SnF2, 1 mg NaF and 0.5 mg sodium nitrate was treated with 2 ml of eluate from a technetium generator (6mCi/ml). The vial was allowed to stand at ambient temperature for 10 minutes, then heated in a boiling water bath for 15 minutes.

[2] = removal from the blood in a single pass through the kidney; cited from earlier work
[3] = dissection at 2 hr, group value

## O=C(O)CNC(=O)c1ccccc1[131I] [Hippuran-I-131, sodium iodo- hippurate, reference compound]
[1]
  hepatobiliary excretion: some hepatobiliary excretion
[1]; [3]
  Dissection at 2 hr; % of injected dose: Bladder: 93.0 % of injected dose
  Dissection at 2 hr; % of injected dose: Kidneys: 0.2 % of injected dose
  Dissection at 2 hr; % of injected dose: Liver: 0.2 % of injected dose
[1]; time 5 min
  % in bladder of that at 2 hrs.: 33.4%
[1]; time 10 min
  % in bladder of that at 2 hrs.: 53.8%
[1]; time 15 min
  % in bladder of that at 2 hrs.: 63.9%
[1]; time 20 min
  % in bladder of that at 2 hrs.: 72.4%
[1]; time 25 min
  % in bladder of that at 2 hrs.: 80.5%
[1]; time 30 min
  % in bladder of that at 2 hrs.: 85.0%
[1]; time 60 min
  % in bladder of that at 2 hrs.: 93.0%
[2]
  removed in a single pass: About 80%
